The supplement of paper PMC4862054

Experiments:
Assay in all cases: normalised response (% of control), CellTiter-Glo; higher = more viable cells (100 = DMSO, 0 = benzethonium chloride kill control)
Conditions in all cases: incubation time: 72 h
BT-474 = system: BT-474
How it was run: (§1)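 Two readouts were taken after 72 h: CellTox Green fluorescence (485/520 nm) first, then CellTiter-Glo luminescence after 10 min at room temperature. Breast cancer cell lines had been seeded as 20 µl suspension into 384-well plates holding compound at 5 concentrations in 10-fold steps across a compound-specific 10,000-fold range. Each value is a normalised signal at a single concentration, with plates scaled to 0.1 % DMSO (100) and a positive kill control (0).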

BT-549 = system: BT-549
How it was run: as §1

CAL-120 = system: CAL-120
How it was run: as §1

CAL-148 = system: CAL-148
How it was run: as §1

CAL-51 = system: CAL-51
How it was run: as §1

CAL-85-1 = system: CAL-85-1
How it was run: as §1

DU-4475 = system: DU-4475
How it was run: as §1

HCC1143 = system: HCC1143
How it was run: as §1

HCC1599 = system: HCC1599
How it was run: as §1

HCC1937 = system: HCC1937
How it was run: as §1

HDQ-P1 = system: HDQ-P1
How it was run: as §1

Hs578T = system: Hs578T
How it was run: as §1

MCF-10A = system: MCF-10A
How it was run: as §1

MDA-MB-231 = system: MDA-MB-231
How it was run: as §1

MDA-MB-436 = system: MDA-MB-436
How it was run: as §1

MDA-MB-453 = system: MDA-MB-453
How it was run: as §1

MDA-MB-468 = system: MDA-MB-468
How it was run: as §1

MFM-223 = system: MFM-223
How it was run: as §1

SK-BR-3 = system: SK-BR-3
How it was run: as §1

Compound | normalised response (BT-474) | normalised response (BT-549) | normalised response (CAL-120) | normalised response (CAL-148) | normalised response (CAL-51) | normalised response (CAL-85-1) | normalised response (DU-4475) | normalised response (HCC1143) | normalised response (HCC1599) | normalised response (HCC1937) | normalised response (HDQ-P1) | normalised response (Hs578T) | normalised response (MCF-10A) | normalised response (MDA-MB-231) | normalised response (MDA-MB-436) | normalised response (MDA-MB-453) | normalised response (MDA-MB-468) | normalised response (MFM-223) | normalised response (SK-BR-3)
CN(N=O)C(=O)N[C@@H](C=O)[C@@H](O)[C@H](O)[C@H](O)CO [Streptozocin] (1000 nM) | 107% | 98.2% | 105% | 100% | 107% | 104% | 100% | 112% | 107% | 108% | 107% | 109% | 109% | 106% | 98.3% | 109% | 104% | 103% | 100%
CNCc1ccc(-c2[nH]c3cc(F)cc4c3c2CCNC4=O)cc1 [Rucaparib] (1000 nM) | 92.3% | 100% | 105% | 95.3% | 106% | 110% | 97.6% | 94.1% | 94.4% | 105% | 98.8% | 107% | 101% | 99% | 88.8% | 100% | 93.5% | 96.3% | 86.7%
C=C(c1ccc(C(=O)O)cc1)c1cc2c(cc1C)C(C)(C)CCC2(C)C [Bexarotene] (1000 nM) | 87.8% | 102% | 104% | 86.4% | 111% | 102% | 103% | 102% | 57.6% | 102% | 104% | 94.9% | 81.8% | 106% | 99.4% | 103% | 103% | 102% | 80%
C#Cc1cccc(Nc2ncnc3cc(OCCOC)c(OCCOC)cc23)c1 [Erlotinib] (1000 nM) | 96.3% | 100% | 93.5% | 82.1% | 80.3% | 60.2% | 104% | 94.7% | 100% | 93.4% | 69.3% | 99.8% | 37.1% | 102% | 99.9% | 107% | 82.9% | 100% | 97.5%
Cc1ccc(C(=O)Nc2ccc(CN3CCN(C)CC3)c(C(F)(F)F)c2)cc1C#Cc1cnc2cccnn12 [Ponatinib] (100 nM) | 93% | 107% | 86.3% | 99.6% | 112% | 105% | 99.3% | 97.6% | 117% | 97.2% | 92.1% | 96.5% | 103% | 91.4% | 97% | 110% | 120% | 54.5% | 107%
CN[C@@H]1C[C@H]2O[C@@](C)([C@@H]1OC)n1c3ccccc3c3c4c(c5c6ccccc6n2c5c31)C(=O)N[C@H]4O [UCN-01] (1000 nM) | 12.4% | 17.8% | 20.5% | 75.2% | 11.8% | 23.2% | 7.33% | 17.3% | 8.97% | 32% | 18.8% | 11.7% | 1.2% | 7.91% | 27.5% | 34% | 5.24% | 30.2% | 22.3%
CCC1=C[C@@H]2CN(C1)Cc1c([nH]c3ccccc13)[C@@](C(=O)OC)(c1cc3c(cc1OC)N(C)[C@H]1[C@@](O)(C(=O)OC)[C@H](OC(C)=O)[C@]4(CC)C=CCN5CC[C@]31[C@@H]54)C2 [Vinorelbine] (1000 nM) | 55.7% | 41.8% | 66.9% | 43.2% | 26.7% | 39% | 69.9% | 56.9% | 26% | 73.8% | 76.2% | 35.5% | 63% | 43.5% | 24.7% | 56.1% | 30.3% | 39.3% | 16.9%
Oc1nc(-c2ccc(C(F)(F)F)cc2)nc2c1CSCC2 [XAV-939] (1000 nM) | 79.8% | 91.8% | 92% | 89.8% | 89.3% | 105% | 92.8% | 88.8% | 104% | 91.1% | 101% | 92.3% | 88.8% | 76.8% | 96.7% | 91.4% | 82% | 96.1% | 84.4%
Cn1c(Nc2ccc(C(F)(F)F)cc2)nc2cc(Oc3ccnc(-c4ncc(C(F)(F)F)[nH]4)c3)ccc21 [RAF265] (100 nM) | 99.3% | 91.1% | 82.9% | 97.1% | 77.8% | 98.5% | 95.3% | 95.9% | 120% | 91.6% | 75% | 82.5% | 91.4% | 104% | 89.8% | 110% | 85.5% | 96.5% | 92%
COc1cc([C@@H]2c3cc4c(cc3[C@@H](O[C@@H]3O[C@@H]5CO[C@@H](C)O[C@H]5[C@H](O)[C@H]3O)[C@H]3COC(=O)[C@H]23)OCO4)cc(OC)c1O [Etoposide] (1000 nM) | 93.2% | 76.7% | 93.3% | 69% | 65.7% | 101% | 56.8% | 86.2% | 63.5% | 94% | 97.6% | 91% | 99.8% | 94.7% | 67% | 153% | 87.3% | 114% | 67.7%
Cc1ccc(-n2nc(C(C)(C)C)cc2NC(=O)Nc2ccc(OCCN3CCOCC3)c3ccccc23)cc1 [Doramapimod] (1000 nM) | 86.1% | 99.6% | 101% | 80.3% | 111% | 121% | 96% | 95.2% | 108% | 95.1% | 89.1% | 97% | 89.1% | 83.7% | 105% | 85.8% | 87.5% | 87.6% | 80.8%
N[C@@H](CSC(c1ccccc1)(c1ccccc1)c1ccccc1)C(=O)O [S-trityl-L-cysteine] (4000 nM) | 102% | 98.6% | 102% | 97.6% | 87.3% | 99.8% | 91.1% | 94% | 109% | 97.3% | 99.5% | 99.2% | 96.3% | 105% | 100% | 103% | 105% | 101% | 94.3%
COc1cc2nccc(Oc3ccc(NC(=O)C4(C(=O)Nc5ccc(F)cc5)CC4)cc3)c2cc1OC [Cabozantinib] (100 nM) | 87.7% | 96.5% | 101% | 98.1% | 109% | 93.6% | 99.6% | 92.2% | 117% | 95.6% | 97.6% | 103% | 88.6% | 90.5% | 99.2% | 106% | 96.7% | 98.7% | 104%
Cn1c(CCCC(=O)O)nc2cc(N(CCCl)CCCl)ccc21 [Bendamustine] (1000 nM) | 101% | 92.4% | 104% | 110% | 112% | 101% | 101% | 106% | 105% | 95.7% | 102% | 106% | 96.9% | 106% | 101% | 117% | 117% | 111% | 107%
O=C1CCC(N2C(=O)c3ccccc3C2=O)C(=O)N1 (stereo not given) [Thalidomide] (1000 nM) | 102% | 96.3% | 101% | 96% | 120% | 94.5% | 100% | 95.9% | 114% | 98% | 101% | 107% | 102% | 95.8% | 99.1% | 102% | 106% | 93.8% | 99.4%
Clc1ccc(Nc2nnc(Cc3ccncc3)c3ccccc23)cc1 [Vatalanib] (1000 nM) | 95.2% | 100% | 99.2% | 98.7% | 94.4% | 97.7% | 106% | 97% | 124% | 103% | 109% | 100% | 103% | 105% | 106% | 95.4% | 103% | 104% | 104%
CCC1(c2ccc(N)cc2)CCC(=O)NC1=O (stereo not given) [Aminoglutethimide] (1000 nM) | 100% | 94.7% | 105% | 96.2% | 80.4% | 103% | 101% | 97.6% | 115% | 96.8% | 97% | 101% | 101% | 105% | 102% | 100% | 105% | 101% | 95.6%
O=P1(NCCCl)OCCCN1CCCl (stereo not given) [Ifosfamide] (1000 nM) | 93.3% | 96.1% | 91.4% | 89% | 105% | 96.8% | 90.6% | 94.7% | 96.1% | 97.7% | 104% | 97.8% | 95.6% | 88.3% | 91.3% | 92.5% | 90.9% | 92.5% | 92%
CO[C@H]1/C=C\C=C(/C)C(=O)NC2=CC(=O)C(NCCN(C)C)=C(C[C@@H](C)C[C@H](OC)[C@H](O)[C@@H](C)/C=C(\C)[C@@H]1OC(N)=O)C2=O [Alvespimycin] (100 nM) | 36.1% | 33.7% | 52% | 23.9% | 26.7% | 23% | 0.07% | 35.4% | 76.9% | 36.5% | 31.3% | 41.8% | 13.5% | 26.5% | 46.6% | 25.8% | 39.6% | 39.9% | 44.1%
CC1(C)NC(=O)N(c2ccc([N+](=O)[O-])c(C(F)(F)F)c2)C1=O [Nilutamide] (1000 nM) | 99.8% | 91.2% | 102% | 109% | 82.4% | 98.5% | 105% | 101% | 110% | 103% | 97.7% | 113% | 111% | 102% | 106% | 102% | 119% | 107% | 110%
